Source: ChEMBL document CHEMBL2146471, “Derivatives of heteroarylsulfonamides, their preparation, and their application in human therapy: patent highlight” (ACS Med Chem Lett, 2012)

Target: Potassium voltage-gated channel subfamily A member 5 (Homo sapiens) (UniProt P22460)
Experiment: Inhibition of Kv1.5 ion channel expressed in HEK293 cells at 10 uM by FLIPR assay
Format: cell-based

Sequence of Potassium voltage-gated channel subfamily A member 5 (Homo sapiens) (P22460 whole entry): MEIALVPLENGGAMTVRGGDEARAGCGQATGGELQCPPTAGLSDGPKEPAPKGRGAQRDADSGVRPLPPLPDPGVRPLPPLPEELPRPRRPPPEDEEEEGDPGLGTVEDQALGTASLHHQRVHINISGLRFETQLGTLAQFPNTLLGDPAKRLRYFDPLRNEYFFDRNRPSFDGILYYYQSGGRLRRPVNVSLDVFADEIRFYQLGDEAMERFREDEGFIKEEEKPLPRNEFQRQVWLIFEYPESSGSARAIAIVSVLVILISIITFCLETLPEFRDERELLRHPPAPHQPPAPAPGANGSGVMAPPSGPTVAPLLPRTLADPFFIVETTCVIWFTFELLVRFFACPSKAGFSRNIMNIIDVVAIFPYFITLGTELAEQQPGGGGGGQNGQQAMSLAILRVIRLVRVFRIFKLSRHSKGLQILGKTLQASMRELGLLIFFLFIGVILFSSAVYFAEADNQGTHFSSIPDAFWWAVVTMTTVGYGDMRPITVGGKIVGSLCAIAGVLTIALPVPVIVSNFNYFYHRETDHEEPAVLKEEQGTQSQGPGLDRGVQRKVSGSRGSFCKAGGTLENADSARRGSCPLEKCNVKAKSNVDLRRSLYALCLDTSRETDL

SMILES	inhibition [%]
O=S(=O)(Nc1ccccc1OCC1CCN(c2nc3ccccc3s2)C1)c1ccccn1 (stereo not given)	76
O=C(c1cccc(NS(=O)(=O)c2ccccn2)c1)N1CCN(c2nc3ccc(Cl)cc3s2)CC1	75.1
O=S(=O)(Nc1ccccc1OC1CCN(c2nc3ccc(Br)cc3s2)CC1)c1ccccn1	100

Results, then the compound that gave them:

inhibition [%]	SMILES
100	O=C(c1ccccc1NS(=O)(=O)c1ccccn1)N1CCN(c2nc3ccc(Br)cc3s2)CC1
100	O=C(c1ccc(NS(=O)(=O)c2ccccn2)cc1)N1CCN(c2nc3ccc(F)cc3s2)CC1
